Literature values, collected in article PMC9010257 (Clinical and Translational Science, 2022).

Test system: TNAP

Compound | inhibitory activity | specificity for TNAP
Cn1c(=O)c2[nH]cnc2n(C)c1=O [theophylline] | weak inhibitory activity | not specific for TNAP
c1ccc([C@H]2CN3CCSC3=N2)cc1 [levamisole] | weak inhibitory activity | not specific for TNAP
